Our source for the Ki values is patent publication US8178522B2, “Thiazoles” (Hoffmann-La Roche Inc., priority 2009, dated 2012).

The target in this experiment is T1, GABA A α5 (α5β3γ2) (Homo sapiens, UniProt P18507+P31644).
T1 construct: expressed in transfected cells; host or cells: HEK293, transiently transfected; membrane preparation
The experiment can be described thus: [3H]flumazenil competition binding, human GABA A α5 receptor. As to conditions: human receptor α5β3γ2 transiently transfected in HEK293 cells; competition for [3H]flumazenil 0.5 nM; 1 hour at 4° C.; means of two determinations; read-out: hKi GABA A α5. Summed up:
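Competition with [3H]flumazenil at membranes from HEK293 cells transiently expressing human α5β3γ2, in Krebs-tris buffer pH 7.5. Equilibrium 1 hour at 4° C, filtration with ice-cold 50 mM Tris wash, scintillation counting. Ki values are means of two determinations.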

`Cc1nc(CCc2c(-c3ccccc3)noc2C)sc1C(=O)NC(C)C` [Example 1, 4-Methyl-2-[2-(5-methyl-3-phenyl-isoxazol-4-yl)-ethyl]-thiazole-5-carboxylic acid iso-propylamide]: the Ki stood at 5.7 nM.

`Cc1nc(/C=C/c2c(-c3ccc(F)cn3)noc2C)sc1C(=O)NC(C)(C)CO` [Example 74, 2-{(E)-2-[3-(5-Fluoro-pyridin-2-yl)-5-methyl-isoxazol-4-yl]-vinyl}-4-methyl-thiazole-5-carboxylic acid (2-hydroxy-1,1-dimethyl-ethyl)-amide]: the Ki came to 8.4 nM.

On to `Cc1onc(-c2ccc(F)cn2)c1/C=C/c1ncc(C(=O)NC(C)C)s1` [Example 78, 2-{(E)-2-[3-(5-Fluoro-pyridin-2-yl)-5-methyl-isoxazol-4-yl}-vinyl]-thiazole-5-carboxylic acid isopropylamide], for which the Ki stood at 2.9 nM.

For `CCCCc1noc(C)c1COc1ncc(C(=O)NC(C)C)s1` [Example 132, 2-(3-Butyl-5-methyl-isoxazol-4-ylmethoxy)-thiazole-5-carboxylic acid isopropylamide], the Ki worked out at 10.2 nM.

Consider `Cc1onc(-c2ccc(F)cn2)c1/C=C/c1ncc(C(=O)N2CCOCC2)s1` [Example 86, (2-{(E)-2-[3-(5-Fluoro-pyridin-2-yl)-5-methyl-isoxazol-4-yl]-vinyl}-thiazol-5-yl)-morpholin-4-yl-methanone], for which the Ki worked out at 31.2 nM.

As for `Cc1onc(-c2ccc(F)cn2)c1CCc1ncc(C(=O)NCC2CC2)s1` [Example 43, 2-{2-[3-(5-Fluoro-pyridin-2-yl)-5-methyl-isoxazol-4-yl]-ethyl}-thiazole-5-carboxylic acid cyclopropylmethyl-amide], the Ki was 18.6 nM.

For `CCCCc1noc(C)c1/C=C/c1nc(C)c(C(=O)N2CC(OC)C2)s1` [Example 109, {2-[(E)-2-(3-Butyl-5-methyl-isoxazol-4-yl)-vinyl]-4-methyl-thiazol-5-yl}-(3-methoxy-azetidin-1-yl)-methanone], the Ki came to 33.2 nM.

In the case of `CNC(=O)c1sc(CCc2c(-c3ccccn3)noc2C)nc1C` [Example 16, 4-Methyl-2-[2-(5-methyl-3-pyridin-2-yl-isoxazol-4-yl)-ethyl]-thiazole-5-carboxylic acid methylamide], the Ki turned out to be 21.3 nM.

For `CCCCc1noc(C)c1/C=C/c1nc(C)c(C(=O)NC2CCS(=O)(=O)C2)s1` (centres unmarked) [Example 118, 2-[(E)-2-(3-Butyl-5-methyl-isoxazol-4-yl)-vinyl]-4-methyl-thiazole-5-carboxylic acid (1,1-dioxo-tetrahydrothiophen-3-yl)-amide], the Ki turned out to be 2.5 nM.

As to `Cc1onc(-c2ccccn2)c1CCc1ncc(C(=O)NC(C)C)s1` [Example 22, 2-[2-(5-Methyl-3-pyridin-2-yl-isoxazol-4-yl)-ethyl]-thiazole-5-carboxylic acid isopropylamide], the Ki was 18.1 nM.

Consider `Cc1onc(-c2ccc(F)cn2)c1/C=C/c1ncc(C(=O)N2CCSCC2)s1` [Example 89, (2-{(E)-2-[3-(5-Fluoro-pyridin-2-yl)-5-methyl-isoxazol-4-yl]-vinyl}-thiazol-5-yl)-thiomorpholin-4-yl-methanone], for which the Ki worked out at 22.8 nM.

Take `CCCCc1noc(C)c1/C=C/c1nc(C)c(C(=O)NN(C)C)s1` [Example 102, 2-[(E)-2-(3-Butyl-5-methyl-isoxazol-4-yl)-vinyl]-4-methyl-thiazole-5-carboxylic acid N′,N′-dimethyl-hydrazide]: the Ki was found to be 4.4 nM.

Take `Cc1onc(-c2ccccc2)c1CNc1ncc(C(=O)NC2CCOCC2)s1` [Example 136, 2-[(5-Methyl-3-phenyl-isoxazol-4-ylmethyl)-amino]-thiazole-5-carboxylic acid (tetra-hydro-pyran-4-yl)-amide]: the Ki is 27.5 nM.

Consider `Cc1nc(CCc2c(-c3ccccn3)noc2C)sc1C(=O)NC(C)C` [Example 10, 4-Methyl-2-[2-(5-methyl-3-pyridin-2-yl-isoxazol-4-yl)-ethyl]-thiazole-5-carboxylic acid isopropylamide], for which the Ki came out at 4.3 nM.

In the case of `CCCCc1noc(C)c1CCc1nc(C)c(C(=O)NC2CCOC2)s1` (racemic) [Example 52, Rac-2-[2-(3-Butyl-5-methyl-isoxazol-4-yl)-ethyl]-4-methyl-thiazole-5-carboxylic acid (tetrahydro-furan-3-yl)-amide], the Ki was 15.2 nM.

Consider `CCCCc1noc(C)c1CCc1nc(C)c(C(=O)NC(CO)CO)s1` [Example 53, 2-[2-(3-Butyl-5-methyl-isoxazol-4-yl)-ethyl]-4-methyl-thiazole-5-carboxylic acid (2-hydroxy-1-hydroxymethyl-ethyl)-amide], for which the Ki is 18.7 nM.

For the compound `CCCCc1noc(C)c1/C=C/c1nc(C)c(C(=O)NCC(F)(F)F)s1` [Example 119, 2-[(E)-2-(3-Butyl-5-methyl-isoxazol-4-yl)-vinyl]-4-methyl-thiazole-5-carboxylic acid (2,2,2-trifluoro-ethyl)-amide], the Ki is 2.4 nM.

With `CCCCc1noc(C)c1CCc1nc(C)c(C(=O)N[C@H](C)CO)s1` [Example 55, 2-[2-(3-Butyl-5-methyl-isoxazol-4-yl)-ethyl]-4-methyl-thiazole-5-carboxylic acid ((R)-2-hydroxy-1-methyl-ethyl)-amide], the Ki was determined as 35.6 nM.

In the case of `CCCCc1noc(C)c1/C=C/c1ncc(C(=O)NCCO)s1` [Example 125, 2-[(E)-2-(3-Butyl-5-methyl-isoxazol-4-yl)-vinyl]-thiazole-5-carboxylic acid (2-hydroxy-ethyl)-amide], the Ki was found to be 6.6 nM.

For the compound `CCCCc1noc(C)c1/C=C/c1nc(C)c(C(=O)NCC2CC2)s1` [Example 116, 2-[(E)-2-(3-Butyl-5-methyl-isoxazol-4-yl)-vinyl]-4-methyl-thiazole-5-carboxylic acid cyclopropylmethyl-amide], the Ki came out at 4.4 nM.

Take `CCNC(=O)c1cnc(/C=C/c2c(-c3ccc(F)cn3)noc2C)s1` [Example 87, 2-{(E)-2-[3-(5-Fluoro-pyridin-2-yl)-5-methyl-isoxazol-4-yl]-vinyl}-thiazole-5-carboxylic acid ethylamide]: the Ki came to 4 nM.

As to `Cc1onc(-c2ccccn2)c1CCc1ncc(C(N)=O)s1` [Example 25, 2-[2-(5-Methyl-3-pyridin-2-yl-isoxazol-4-yl)-ethyl]-thiazole-5-carboxylic acid amide], the Ki stood at 33.6 nM.

Take `Cc1nc(CCc2c(-c3ccccc3)noc2C)sc1C(N)=O` [Example 6, 4-Methyl-2-[2-(5-methyl-3-phenyl-isoxazol-4-yl)-ethyl]thiazole-5-carboxylic acid amide]: the Ki came to 33.7 nM.

`CCCCc1noc(C)c1CCc1ncc(C(=O)NC2CCOC2)s1` (centres unmarked) [Example 60, 2-[2-(3-Butyl-5-methyl-isoxazol-4-yl)-ethyl]-thiazole-5-carboxylic acid (tetrahydro-furan-3-yl)-amide]: the Ki was found to be 35.5 nM.

With `Cc1nc(/C=C/c2c(-c3ccc(F)cn3)noc2C)sc1C(=O)NC1CCOCC1` [Example 72, 2-{(E)-2-[3-(5-Fluoro-pyridin-2-yl)-5-methyl-isoxazol-4-yl]-vinyl}-4-methyl-thiazole-5-carboxylic acid (tetrahydro-pyran-4-yl)-amide], the Ki amounted to 0.6 nM.

As to `Cc1nc(CCc2c(-c3ccccn3)noc2C)sc1C(N)=O` [Example 18, 4-Methyl-2-[2-(5-methyl-3-pyridin-2-yl-isoxazol-4-yl)-ethyl]-thiazole-5-carboxylic acid amide], the Ki is 32.3 nM.
